Among the data in ChEMBL document CHEMBL1139251, “Urea based CCR3 antagonists employing a tetrahydro-1,3-oxazin-2-one spacer” (Bioorg Med Chem Lett, 2009) are IC50, Ki and Stability values, retold here.

For orientation: IC50 means the concentration at which inhibition is half-maximal. A word on the Ki: it is a measure of affinity in units of concentration, obtained from inhibition or displacement. A low value points to tighter binding.

SMILES strings stand for the structures.

The subject of one data set is Eosinophil. The data set is described as follows: Induction of shape change in human eosinophils by flow cytometry. In kind it is functional, cell-based.
The next data set concerns the target Cytochrome P450 2D6 (Homo sapiens, UniProt P10635). The data set is described as follows: Inhibition of CYP2D6. The format is ADME.
The target in data set [1] is T1, C-C chemokine receptor type 3 (Homo sapiens, UniProt P51677).
T1 sequence (P51677 whole entry): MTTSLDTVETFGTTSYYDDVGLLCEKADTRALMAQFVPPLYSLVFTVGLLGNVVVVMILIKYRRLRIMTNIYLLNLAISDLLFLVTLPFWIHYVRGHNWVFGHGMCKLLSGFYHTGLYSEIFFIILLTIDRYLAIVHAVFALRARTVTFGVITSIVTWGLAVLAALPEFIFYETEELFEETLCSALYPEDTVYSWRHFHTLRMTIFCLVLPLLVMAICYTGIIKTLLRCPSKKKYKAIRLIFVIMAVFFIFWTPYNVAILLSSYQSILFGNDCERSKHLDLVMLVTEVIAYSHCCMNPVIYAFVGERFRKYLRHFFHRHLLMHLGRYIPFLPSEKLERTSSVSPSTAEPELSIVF
The data set is described as follows: Binding affinity to CCR3 receptor.

The target in data set [2] is Voltage-gated inwardly rectifying potassium channel KCNH2 (Homo sapiens, UniProt Q12809). The data set is described as follows: Inhibition of human ERG by calcium-flux based assay.
The test system of a further data set is Liver microsomes. The data set is described as follows: Metabolic stability in human liver microsomes. In kind it is ADME, Microsome. In general terms: Liver microsomes are vesicles of endoplasmic reticulum, rich in cytochrome P450 enzymes.

Sequence of Cytochrome P450 2D6 (P10635 whole entry): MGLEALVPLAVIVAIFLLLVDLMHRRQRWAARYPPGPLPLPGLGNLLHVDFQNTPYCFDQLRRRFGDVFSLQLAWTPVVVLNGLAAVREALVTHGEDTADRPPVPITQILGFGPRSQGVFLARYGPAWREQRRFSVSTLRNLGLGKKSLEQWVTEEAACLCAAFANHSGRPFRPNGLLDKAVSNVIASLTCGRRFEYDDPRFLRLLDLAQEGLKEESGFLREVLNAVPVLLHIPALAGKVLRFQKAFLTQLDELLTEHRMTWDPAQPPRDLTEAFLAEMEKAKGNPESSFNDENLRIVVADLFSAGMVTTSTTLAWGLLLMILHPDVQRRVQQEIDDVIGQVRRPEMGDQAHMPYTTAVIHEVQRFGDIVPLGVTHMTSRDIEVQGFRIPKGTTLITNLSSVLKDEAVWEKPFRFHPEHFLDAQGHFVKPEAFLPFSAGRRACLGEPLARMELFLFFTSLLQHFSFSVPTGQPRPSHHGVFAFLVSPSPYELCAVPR
Sequence of Voltage-gated inwardly rectifying potassium channel KCNH2 (Q12809 whole entry): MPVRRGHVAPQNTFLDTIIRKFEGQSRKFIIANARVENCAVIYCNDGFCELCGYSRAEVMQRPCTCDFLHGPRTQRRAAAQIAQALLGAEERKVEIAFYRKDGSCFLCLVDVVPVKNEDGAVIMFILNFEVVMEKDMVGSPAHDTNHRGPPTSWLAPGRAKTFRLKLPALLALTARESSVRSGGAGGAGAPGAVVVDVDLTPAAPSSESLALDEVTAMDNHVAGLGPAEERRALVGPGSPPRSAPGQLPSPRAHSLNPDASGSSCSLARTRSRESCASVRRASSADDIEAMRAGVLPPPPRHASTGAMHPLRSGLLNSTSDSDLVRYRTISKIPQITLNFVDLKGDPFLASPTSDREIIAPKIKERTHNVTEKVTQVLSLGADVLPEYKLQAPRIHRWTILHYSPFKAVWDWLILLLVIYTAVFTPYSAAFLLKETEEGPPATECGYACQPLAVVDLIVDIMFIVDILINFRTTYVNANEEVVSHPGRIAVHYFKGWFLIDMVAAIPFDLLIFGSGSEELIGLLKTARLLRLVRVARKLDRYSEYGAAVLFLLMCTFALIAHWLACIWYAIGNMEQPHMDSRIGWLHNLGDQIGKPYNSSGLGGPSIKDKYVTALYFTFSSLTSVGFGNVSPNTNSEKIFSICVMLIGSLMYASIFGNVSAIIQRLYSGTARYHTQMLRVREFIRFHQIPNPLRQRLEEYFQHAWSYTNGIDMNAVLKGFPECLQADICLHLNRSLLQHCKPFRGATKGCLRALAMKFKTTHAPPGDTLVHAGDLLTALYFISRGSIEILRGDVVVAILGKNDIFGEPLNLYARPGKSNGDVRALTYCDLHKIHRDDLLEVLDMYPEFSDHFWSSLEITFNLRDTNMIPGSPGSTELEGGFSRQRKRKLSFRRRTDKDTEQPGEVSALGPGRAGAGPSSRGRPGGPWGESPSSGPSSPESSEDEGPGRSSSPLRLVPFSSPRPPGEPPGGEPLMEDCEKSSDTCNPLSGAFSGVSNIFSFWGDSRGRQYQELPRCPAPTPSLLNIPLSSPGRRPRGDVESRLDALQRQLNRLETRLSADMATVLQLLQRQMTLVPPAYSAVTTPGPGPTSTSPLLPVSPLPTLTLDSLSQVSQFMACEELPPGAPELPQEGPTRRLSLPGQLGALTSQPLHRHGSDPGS

For `C[C@@H](NC(=O)Nc1cccc(-c2nnnn2C)c1)[C@@H](O)CN1CCC[C@@H](Cc2ccc(F)cc2)C1`, the IC50 in the data set with Eosinophil (Homo sapiens, Eosinophil) was found to be 0.038 nM. On Cytochrome P450 2D6, this molecule registered an inhibitory constant (Ki) of 2600 nM.
On to `CN1C[C@@H](NC(=O)Nc2cccc(-c3nnnn3C)c2)[C@H](CN2CCC[C@@H](Cc3ccc(F)cc3)C2)OC1=O`, for which the IC50 came out at 0.23 nM in data set [1] and 4300 nM against Cytochrome P450 2D6.
Regarding `CN1C[C@@H](NC(=O)Nc2cccc(-c3nnnn3C)c2)[C@H](CN(CCCc2ccc(F)cc2)C2CC2)OC1=O`, the IC50 in data set [1] stood at 2.1 nM; with Eosinophil (Homo sapiens, Eosinophil) it was 2.2 nM.
For the molecule `CCCN(CCCc1ccc(F)cc1)C[C@@H]1OC(=O)N(C)C[C@H]1NC(=O)Nc1nc(C)cs1`, the concentration for half-maximal inhibition (IC50) in data set [1] stood at 9.2 nM.
As for `CC(=O)c1sc(NC(=O)NC2(C)CN(C)C(=O)OC2CN2CCC[C@@H](Cc3ccc(F)cc3)C2)nc1C` (mixture of isomers), the half-maximal inhibitory concentration (IC50) in data set [1] is 1.1 nM; at Cytochrome P450 2D6 it was 21000 nM.
Consider `CN1CC(C)(NC(=O)Nc2cccc(-c3nnnn3C)c2)C(CN2CCC[C@@H](Cc3ccc(F)cc3)C2)OC1=O` (mixture of isomers; 19a), for which the half-inhibitory concentration (IC50) came to 0.12 nM in data set [1], 2.4 nM with Eosinophil (eosinophil) and 33000 nM against Cytochrome P450 2D6.
On to `CN1CC(C)(NC(=O)Nc2cccc(-c3nnnn3C)c2)C(CN2CCC[C@@H](Cc3ccc(F)cc3)C2)OC1=O.Cl` (mixture of isomers; 19b), for which the IC50 in data set [2] worked out at 15700 nM; in data set [1], 0.15 nM; in the data set on Eosinophil (eosinophil), 0.13 nM; on Cytochrome P450 2D6, 17000 nM. Further, in the data set with Liver microsomes, the Stability result is recorded as “Unstable”.
In turn, `Cc1csc(NC(=O)NC2(C)CN(C)C(=O)OC2CN2CCC[C@@H](Cc3ccc(F)cc3)C2)n1` (mixture of isomers; 20a) registered a half-maximal inhibitory concentration (IC50) in data set [1] of 5.4 nM.
Regarding `Cc1csc(NC(=O)NC2(C)CN(C)C(=O)OC2CN2CCC[C@@H](Cc3ccc(F)cc3)C2)n1` (mixture of isomers; 20b), the IC50 was 0.37 nM in data set [1]; 3.4 nM in the data set with Eosinophil (Homo sapiens, Eosinophil); 2100 nM against Cytochrome P450 2D6.
For the molecule `CN1CC(C)(NC(=O)Nc2nc(C(C)(C)C)cs2)C(CN2CCC[C@@H](Cc3ccc(F)cc3)C2)OC1=O` (mixture of isomers; 22a), in data set [1], the IC50 came out at 44 nM.
Take `CN1CC(C)(NC(=O)Nc2nc(C(C)(C)C)cs2)C(CN2CCC[C@@H](Cc3ccc(F)cc3)C2)OC1=O` (mixture of isomers; 22b): the IC50 in data set [1] came to 5.5 nM; on Cytochrome P450 2D6, 40000 nM.
As for `CCN(CCCc1ccc(F)cc1)CC1OC(=O)N(C)CC1(C)NC(=O)Nc1cccc(-c2nnnn2C)c1` (mixture of isomers; 23a), the concentration for half-maximal inhibition (IC50) in data set [1] came out at 0.18 nM; in the data set with Eosinophil (eosinophil), 4.4 nM; against Cytochrome P450 2D6, 5900 nM.
As to `CCN(CCCc1ccc(F)cc1)CC1OC(=O)N(C)CC1(C)NC(=O)Nc1cccc(-c2nnnn2C)c1` (mixture of isomers; 23b), the IC50 in data set [1] was 0.47 nM; in the data set with Eosinophil (Homo sapiens, Eosinophil) it was more than 3 nM; on Cytochrome P450 2D6, 14000 nM.
